In ChEMBL document CHEMBL4619755 (J Nat Prod, 2020):
Activity calls are given as the source filed them. No cut-off for these calls is given here.

Experiments:
[1] = test system: THP-1; assay: Inhibition of TNF-alpha secretion in LPS-stimulated human THP1 cells assessed as TNF-alpha level at 10 uM incubated for 1 hr followed by nigericin addition and measured after 1 hr by ELISA (reference value: 957.6 pg/mL); format: functional
[2] = test system: THP-1; assay: Antiinflammatory activity in LPS-induced human THP1 cells assessed as IL-1beta secretion at 10 uM incubated for 1 hr followed by LPS stimulation and measured after 24 hrs by ELISA (reference value: 51.2 pg/mL); format: functional
[3] = biological target: T1, P2X purinoceptor 7 (Homo sapiens) (UniProt Q99572); assay: Modulation of P2X7 receptor in nigericin-stimulated human THP1 cells assessed as intracellular potassium efflux at 10 uM incubated for 30 mins followed by 10 uM nigericin challenge and measured after 30 mins by Green-2 AM dye based flow cytometric analysis (reference value: 27.1%); format: cell-based; settings: THP-1
T1 sequence (whole entry): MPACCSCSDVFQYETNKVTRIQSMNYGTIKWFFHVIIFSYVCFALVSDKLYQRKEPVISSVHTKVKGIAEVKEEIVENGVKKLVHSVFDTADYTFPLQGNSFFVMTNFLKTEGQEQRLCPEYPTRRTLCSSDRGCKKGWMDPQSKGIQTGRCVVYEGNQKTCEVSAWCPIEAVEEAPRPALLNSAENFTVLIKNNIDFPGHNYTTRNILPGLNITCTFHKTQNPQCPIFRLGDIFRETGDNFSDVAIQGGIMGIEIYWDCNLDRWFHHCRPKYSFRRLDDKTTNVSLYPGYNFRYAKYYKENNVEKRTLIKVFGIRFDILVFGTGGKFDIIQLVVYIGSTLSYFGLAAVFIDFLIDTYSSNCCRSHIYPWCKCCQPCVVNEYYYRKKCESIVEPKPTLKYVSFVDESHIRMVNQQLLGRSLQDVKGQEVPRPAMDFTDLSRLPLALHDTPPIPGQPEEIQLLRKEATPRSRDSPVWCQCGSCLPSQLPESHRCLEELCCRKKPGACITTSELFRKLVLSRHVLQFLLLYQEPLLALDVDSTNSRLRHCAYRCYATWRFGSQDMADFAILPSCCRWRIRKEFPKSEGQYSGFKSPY

[4] = test system: THP-1; assay: Antiinflammatory activity in human THP1 cells assessed as reduction in LPS-induced IL-1beta secretion at 0.1 to 10 uM incubated for 1 hr followed by LPS stimulation and measured after 24 hrs by ELISA; format: functional, cell-based
[5] = Cytotoxicity against human THP1 cells assessed as cell viability at 0.1 uM after 24 hrs by CellTiter-Glo luminescent cell viability assay relative to control; format: cell-based; settings: THP-1 cells, read-out: Activity
[6] = Cytotoxicity against human THP1 cells assessed as cell viability at 0.1 to 100 uM after 24 hrs in presence of LPS by CellTiter-Glo luminescent cell viability assay relative to control; format: cell-based; settings: THP-1 cells, read-out: Activity
[7] = biological target: NACHT, LRR and PYD domains-containing protein 3 (Homo sapiens) (UniProt Q96P20); assay: Inhibition of NLRP3 inflammasome activation in LPS-stimulated human THP1 cells assessed as reduction in IL-1beta secretion at 0.1 uM incubated for 1 hr followed by nigericin addition and measured after 1 hr by ELISA relative to control; format: cell-based; settings: THP-1
[8] = Cytotoxicity against human THP1 cells assessed as cell viability at 1 uM after 24 hrs by CellTiter-Glo luminescent cell viability assay relative to control; format: cell-based; settings: THP-1 cells, read-out: Activity
[9] = biological target: T1, P2X purinoceptor 7 (Homo sapiens); assay: Modulation of P2X7 receptor in LPS-stimulated human THP1 cells assessed as LPS-nigericin-stimulated intracellular potassium efflux at 10 uM incubated for 1 hr followed by nigericin challenge and measured after 1 hr by Green-2 AM dye based flow cytometric analysis (reference value: 29%); format: cell-based; settings: THP-1
[10] = Cytotoxicity against human THP1 cells assessed as cell viability at 10 uM after 24 hrs by CellTiter-Glo luminescent cell viability assay relative to control; format: cell-based; settings: THP-1 cells, read-out: Activity
[11] = biological target: T1, P2X purinoceptor 7 (Homo sapiens); assay: Modulation of P2X7 receptor in nigericin-stimulated human THP1 cells assessed as intracellular potassium efflux at 10 uM incubated for 30 mins followed by 1 uM nigericin challenge and measured after 30 mins by Green-2 AM dye based flow cytometric analysis (reference value: 27.1%); format: cell-based; settings: THP-1
[12] = test system: THP-1; assay: Modulation of intracellular calcium release in LPS-stimulated human THP1 cells at 1 to 100 uM incubated for 1 hr followed by nigericin challenge and measured after 1 hr by Fluo-3dye based flow cytometric analysis; format: functional, cell-based
[13] = biological target: NACHT, LRR and PYD domains-containing protein 3 (Homo sapiens) (UniProt Q96P20); assay: Inhibition of NLRP3 inflammasome activation in LPS-stimulated human THP1 cells assessed as reduction in IL-1beta secretion at 10 uM incubated for 1 hr followed by nigericin addition and measured after 1 hr by ELISA relative to control; format: cell-based; settings: THP-1
[14] = biological target: NACHT, LRR and PYD domains-containing protein 3 (Homo sapiens) (UniProt Q96P20); assay: Inhibition of NLRP3 inflammasome activation in LPS-stimulated human THP1 cells assessed as reduction in IL-1beta secretion at 1 uM incubated for 1 hr followed by nigericin addition and measured after 1 hr by ELISA relative to control; format: cell-based; settings: THP-1
[15] = biological target: T1, P2X purinoceptor 7 (Homo sapiens); assay: Modulation of P2X7 receptor in LPS-stimulated human THP1 cells assessed as LPS-nigericin-stimulated intracellular potassium efflux at 1 uM incubated for 1 hr followed by nigericin challenge and measured after 1 hr by Green-2 AM dye based flow cytometric analysis (reference value: 29%); format: cell-based; settings: THP-1
[16] = biological target: T1, P2X purinoceptor 7 (Homo sapiens); assay: Modulation of P2X7 receptor in nigericin-stimulated human THP1 cells assessed as intracellular potassium efflux at 10 uM incubated for 30 mins followed by 5 uM nigericin challenge and measured after 30 mins by Green-2 AM dye based flow cytometric analysis (reference value: 27.1%); format: cell-based; settings: THP-1
[17] = Cytotoxicity against human THP1 cells assessed as cell viability at 100 uM after 24 hrs by CellTiter-Glo luminescent cell viability assay relative to control; format: cell-based; settings: THP-1 cells, read-out: Activity

NACHT, LRR and PYD domains-containing protein 3 (Homo sapiens), sequence (Q96P20 whole entry, the tested form may be a part): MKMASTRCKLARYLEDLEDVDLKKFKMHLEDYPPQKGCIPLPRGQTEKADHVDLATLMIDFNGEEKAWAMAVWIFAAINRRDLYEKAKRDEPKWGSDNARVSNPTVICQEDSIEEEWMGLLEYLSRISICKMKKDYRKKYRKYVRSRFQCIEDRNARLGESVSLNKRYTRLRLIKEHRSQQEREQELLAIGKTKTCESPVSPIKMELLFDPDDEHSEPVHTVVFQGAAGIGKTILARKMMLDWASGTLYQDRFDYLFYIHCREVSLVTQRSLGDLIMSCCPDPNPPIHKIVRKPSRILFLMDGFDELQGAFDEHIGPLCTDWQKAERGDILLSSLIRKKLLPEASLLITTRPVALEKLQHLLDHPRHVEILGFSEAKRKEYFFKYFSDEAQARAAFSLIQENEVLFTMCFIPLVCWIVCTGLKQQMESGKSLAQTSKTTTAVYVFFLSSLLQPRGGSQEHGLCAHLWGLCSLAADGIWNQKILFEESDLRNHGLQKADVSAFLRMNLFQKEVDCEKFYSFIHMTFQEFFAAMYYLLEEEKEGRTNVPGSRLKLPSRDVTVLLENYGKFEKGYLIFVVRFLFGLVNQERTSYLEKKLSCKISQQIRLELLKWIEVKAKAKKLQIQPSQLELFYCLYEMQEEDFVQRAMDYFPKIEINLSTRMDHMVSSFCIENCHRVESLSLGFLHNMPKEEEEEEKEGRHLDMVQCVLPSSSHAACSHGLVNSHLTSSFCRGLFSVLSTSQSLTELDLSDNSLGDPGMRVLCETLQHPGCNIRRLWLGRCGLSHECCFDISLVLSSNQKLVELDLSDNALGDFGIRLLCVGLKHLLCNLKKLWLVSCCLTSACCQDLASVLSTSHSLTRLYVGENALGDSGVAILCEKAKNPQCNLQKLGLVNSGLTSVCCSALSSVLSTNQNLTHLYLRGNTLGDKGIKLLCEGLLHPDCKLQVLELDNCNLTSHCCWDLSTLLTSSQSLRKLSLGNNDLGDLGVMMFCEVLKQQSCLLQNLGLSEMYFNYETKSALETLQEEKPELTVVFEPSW

Row | SMILES | Activity [1] | Activity [2] | Activity [3] | Activity [4] | viability at 24 h, 0.1 µM [5] | viability at 24 h, up to 100 µM [6] | inhibition [7] | viability at 24 h, 1 µM [8] | Activity [9] | viability at 24 h, 10 µM [10] | Activity [11] | Activity [12] | inhibition [13] | inhibition [14] | Activity [15] | Activity [16] | viability at 24 h, 100 µM [17]
1 | CC(C)(O)c1coc(S(=O)(=O)NC(=O)Nc2c3c(cc4c2CCC4)CCC3)c1 | 957.6 pg/mL | – | – | – | – | – | – | – | – | – | – | – | – | – | – | – | –
2 | C=C(C)[C@@H]1CCC(C)=C[C@H]1c1c(O)cc(CCCCC)cc1O [CANNABIDIOL] | 661.9 pg/mL | 32.9 pg/mL | 12.4% | inactive | 96.5% | > 97% | 63.9% | 97.6% | 16% | 103% | 16.1% | inactive | 83.1% | 64.1% | 20% | 13.1% | 99.9%
3 | C=C1C(=O)[C@]23[C@H](O)[C@H]1CC[C@H]2[C@@]12CO[C@]3(O)[C@@H](O)[C@@H]1C(C)(C)CC[C@@H]2O [ORIDONIN] | 777.2 pg/mL | – | – | – | – | – | – | – | – | – | – | – | – | – | – | – | –
